The text below walks through data of ChEMBL document CHEMBL1136554, “p38 Inhibitors: piperidine- and 4-aminopiperidine-substituted naphthyridinones, quinolinones, and dihydroquinazolinones” (Bioorg Med Chem Lett, 2003).

SMILES strings stand for the structures.

Data set [1] has as its target T1, MAP kinase p38 (Homo sapiens, UniProt O15264+Q15759+Q16539+P53778). Nature of the data set: Inhibition of p38 kinase related TNF-alpha release. The format is functional.
For data set [2], the target named is T1, MAP kinase p38. Nature of the data set: Inhibition of p38 MAP kinase. Format: protein assay.
The nature of data set [3]: Oral bioavailability in rat. Format: ADME, organism-based. As to conditions: in vivo.
The nature of data set [4]: Plasma clearance measured in rat. Format: ADME, organism-based. Conditions: read-out: Clp.

`CC(C)N1CCC(Nc2cc(-c3ccccc3Cl)c3c(c2)N(c2c(Cl)cccc2Cl)C(=O)NC3)CC1`: the figures for the 50% inhibitory concentration (IC50) in data set [1] and in data set [2] were 31 nM and 1.6 nM, respectively.
In the case of `CN1C2CCC1CC(Nc1cc(-c3ccccc3Cl)c3c(c1)N(c1c(Cl)cccc1Cl)C(=O)NC3)C2` (configuration not stated), the figures for the IC50 in data set [1] and in data set [2] were 20 nM and 0.4 nM, respectively.
In data set [3], `CC(C)N1CCC(c2cc(-c3ccc(F)cc3Cl)c3c(c2)N(c2c(Cl)cccc2Cl)C(=O)CC3)CC1` displayed a bioavailability of 10%. Besides, the figures for the concentration for half-maximal inhibition (IC50) in data set [1] and in data set [2] were 24 nM and 0.8 nM, respectively. For the same compound, the clearance in data set [4] came out at 4.2 L/h/kg.
Regarding `CC(C)N1CCC(Nc2cc3c(ccc(=O)n3-c3c(Cl)cccc3Cl)c(-c3ccccc3Cl)n2)CC1`, the half-maximal inhibitory concentration (IC50) came out at 51 nM in data set [1] and 1.1 nM in data set [2].
In the case of `CN1C2CCC1CC(Nc1cc3c(ccc(=O)n3-c3c(Cl)cccc3Cl)c(-c3ccccc3Cl)n1)C2` (configuration not stated), in data set [3], the bioavailability amounted to 8.5%. Moreover, the concentration for half-maximal inhibition (IC50) amounted to 24 nM in data set [1] and 0.4 nM in data set [2]. Moreover, the clearance in data set [4] came to 2.28 L/h/kg.
In data set [3], `CC1(C)CC(Nc2cc3c(ccc(=O)n3-c3c(Cl)cccc3Cl)c(-c3ccccc3Cl)n2)CC(C)(C)N1` registered a bioavailability of 5.9%. Further, the IC50 in data set [1] was determined as 10 nM; in data set [2], 0.8 nM. In addition, the clearance in data set [4] worked out at 0.564 L/h/kg.
In turn, `CC(C)N1CCC(c2cc(-c3ccccc3Cl)c3ccc(=O)n(-c4c(Cl)cccc4Cl)c3c2)CC1` came in with a bioavailability in data set [3] of 17%. Besides, the IC50 in data set [1] came out at 5.5 nM; in data set [2], 0.2 nM. The clearance in data set [4] was found to be 2.34 L/h/kg.
In the same order, the values of `CC(C)N1CCC(c2cc3c(ccc(=O)n3-c3c(Cl)cccc3Cl)c(-c3ccccc3Cl)n2)CC1` are 32%, 4.9 nM, 1.3 nM and 3.06 L/h/kg.
With `CC1(C)CC(Nc2cc(-c3ccccc3Cl)c3c(c2)N(c2c(Cl)cccc2Cl)C(=O)NC3)CC(C)(C)N1`, the 50% inhibitory concentration (IC50) in data set [1] is 200 nM; in data set [2], 3.7 nM.
As for `O=c1ccc2c(-c3ccccc3Cl)nc(NC3CCNCC3)cc2n1-c1c(Cl)cccc1Cl`, the values for the concentration for half-maximal inhibition (IC50) in data set [1] and in data set [2] were 18 nM and 0.2 nM, respectively.
The corresponding values for `CN1C(C)(C)CC(Nc2cc3c(ccc(=O)n3-c3c(Cl)cccc3Cl)c(-c3ccccc3Cl)n2)CC1(C)C` are 13 nM and 1.1 nM.
